From US10000483B2, “Bone marrow on X chromosome kinase (BMX) inhibitors and uses thereof” (Dana-Farber Cancer Institute, Inc., priority 2012, dated 2018) come the findings set out here.

Structures are written as SMILES.

In assay [1] the test system is TEL-JAK3 transformed Ba/F3 cells. Kind of assay: cells. The following applies: Mus musculus, BaF3, read-out: GI50, TEL-JAK3 (+IL-3).
The target in another assay is JAK3 (Homo sapiens (Human), UniProt P52333). Kind of assay: DiscoverX binding assay.
Another assay addresses MEK5 (Homo sapiens (Human), UniProt Q13163). As to the kind of experiment: Kinase panel at 1 uM (Table 9). The format is binding. To be noted: read-out: % inhibition at 1 uM, MEK5.
For a further assay, the system named is MWCL-1 cells. Kind of assay: Cell proliferation analysis for WM and lymphoma cell lines (CellTiter-Glo). To be noted: 72 hours. The class given is cell-based.
The next assay concerns the target PIK3CA(I800L) (Homo sapiens (Human), UniProt P42336, I800L). Kind of assay: Kinase panel at 1 uM (Table 9). The format is binding. To be noted: read-out: % inhibition at 1 uM, PIK3CA(I800L).
The target in another assay is BMX (Homo sapiens (Human), UniProt P51813). As to the kind of experiment: BMX protein levels in RV-1 cells. The class given is cell-based. The following applies: 72 h treatment, 5 μM. From the text: Moreover, the depletion could be rescued upon stable overexpression of the C496S mutant BMX.
Assay [2] concerns TEL-JAK1 transformed Ba/F3 cells. As to the kind of experiment: cells. The following applies: Mus musculus, BaF3, read-out: GI50, TEL-JAK1.
Assay [3] relates to TEL-JAK2 transformed Ba/F3 cells. As to the kind of experiment: cells. The following applies: Mus musculus, BaF3, read-out: GI50, TEL-JAK2.
The next assay has as its target BLK (Homo sapiens (Human), UniProt P51451). Kind of assay: Invitrogen Select Screening in vitro kinase assay. The format is biochemical. The text has this: (§1) The in vitro activity of compounds of Formula (I) and (II) in inhibiting BMX and other kinases were obtained using an Invitrogen Select Screening assay as known in the art. The IC50 values determined from this assay are shown below.

The target in a further assay is mTOR (Homo sapiens (Human), UniProt P42345). Kind of assay: Invitrogen Select Screening in vitro kinase assay. The class given is biochemical.
Excerpt: as §1

Another assay concerns the target TEC (Homo sapiens (Human), UniProt P42680). As to the kind of experiment: Invitrogen Select Screening in vitro kinase assay. The class given is biochemical.
Excerpt: as §1

The next assay concerns the target EGFR(T790M) (Homo sapiens (Human), UniProt P00533, T790M). Kind of assay: DiscoverX binding assay.
For another assay, the system named is BCWM.1 cells. Kind of assay: Cell proliferation analysis for WM and lymphoma cell lines (CellTiter-Glo). The format is cell-based. The following applies: BCWM1; 72 hours.
The next assay addresses ITK (Homo sapiens (Human), UniProt Q08881). As to the kind of experiment: DiscoverX binding assay.
The next assay has as its system DU-145 cells. Kind of assay: cells. The following applies: Homo sapiens, DU-145, read-out: GI50, DU-145.
Assay [4] relates to TEL-BLK transformed Ba/F3 cells. Kind of assay: cells. To be noted: Mus musculus, BaF3, read-out: GI50, TEL-BLK.
The next assay concerns the target CLK1 (Homo sapiens (Human), UniProt P49759). As to the kind of experiment: DiscoverX binding assay. To be noted: read-out: % inhibition at 1 uM, CLK1.
In the next assay the target is JNK1 (Homo sapiens (Human), UniProt P45983). Kind of assay: Kinase panel at 1 uM (Table 9). The format is binding. To be noted: read-out: % inhibition at 1 uM, JNK1.
In the next assay the target is DYRK1B (Homo sapiens (Human), UniProt Q9Y463). As to the kind of experiment: Kinase panel at 1 uM (Table 9). The class given is binding. The following applies: read-out: % inhibition at 1 uM, DYRK1B.

Chain of JAK3 (P52333 whole entry): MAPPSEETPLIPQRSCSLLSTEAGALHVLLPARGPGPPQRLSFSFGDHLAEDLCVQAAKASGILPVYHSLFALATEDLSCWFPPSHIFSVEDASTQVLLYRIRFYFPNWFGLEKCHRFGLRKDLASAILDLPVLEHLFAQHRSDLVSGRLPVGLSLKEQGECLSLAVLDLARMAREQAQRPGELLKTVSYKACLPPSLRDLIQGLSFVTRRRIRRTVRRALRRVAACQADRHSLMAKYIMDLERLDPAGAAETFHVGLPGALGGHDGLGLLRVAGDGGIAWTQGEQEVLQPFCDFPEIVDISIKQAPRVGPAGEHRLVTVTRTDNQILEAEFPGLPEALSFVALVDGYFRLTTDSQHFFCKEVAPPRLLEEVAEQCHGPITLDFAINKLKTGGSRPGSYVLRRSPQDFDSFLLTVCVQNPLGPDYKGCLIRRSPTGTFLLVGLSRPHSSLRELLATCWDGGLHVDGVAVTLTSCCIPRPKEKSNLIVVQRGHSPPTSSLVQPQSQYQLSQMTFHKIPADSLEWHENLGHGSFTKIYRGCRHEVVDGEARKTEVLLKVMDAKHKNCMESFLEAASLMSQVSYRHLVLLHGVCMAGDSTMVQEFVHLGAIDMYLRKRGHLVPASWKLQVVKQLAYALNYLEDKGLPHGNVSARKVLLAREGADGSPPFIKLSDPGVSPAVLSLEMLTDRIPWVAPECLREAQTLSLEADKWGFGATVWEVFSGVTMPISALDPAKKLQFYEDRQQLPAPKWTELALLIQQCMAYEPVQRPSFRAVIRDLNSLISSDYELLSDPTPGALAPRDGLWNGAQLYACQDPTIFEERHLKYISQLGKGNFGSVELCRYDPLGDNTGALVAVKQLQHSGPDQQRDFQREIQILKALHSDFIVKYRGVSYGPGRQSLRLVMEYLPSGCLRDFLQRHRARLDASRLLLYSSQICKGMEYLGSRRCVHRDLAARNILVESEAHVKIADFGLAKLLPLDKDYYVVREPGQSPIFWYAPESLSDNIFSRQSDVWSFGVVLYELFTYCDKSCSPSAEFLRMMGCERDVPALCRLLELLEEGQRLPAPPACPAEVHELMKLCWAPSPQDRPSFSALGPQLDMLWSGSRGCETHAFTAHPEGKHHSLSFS
Chain of CLK1 (P49759 whole entry): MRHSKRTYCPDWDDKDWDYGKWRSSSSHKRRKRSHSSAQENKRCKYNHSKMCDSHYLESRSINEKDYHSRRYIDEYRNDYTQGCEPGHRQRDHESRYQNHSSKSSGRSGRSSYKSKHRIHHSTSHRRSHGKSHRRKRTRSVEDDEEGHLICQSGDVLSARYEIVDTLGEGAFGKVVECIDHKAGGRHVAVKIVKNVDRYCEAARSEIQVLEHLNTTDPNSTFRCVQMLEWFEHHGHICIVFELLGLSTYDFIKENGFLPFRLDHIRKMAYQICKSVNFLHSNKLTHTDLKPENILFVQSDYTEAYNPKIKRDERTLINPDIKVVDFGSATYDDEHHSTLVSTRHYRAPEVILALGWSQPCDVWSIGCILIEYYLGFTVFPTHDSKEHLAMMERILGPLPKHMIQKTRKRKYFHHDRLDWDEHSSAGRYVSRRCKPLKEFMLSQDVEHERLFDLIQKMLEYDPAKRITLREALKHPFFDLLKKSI
Chain of ITK (Q08881 whole entry): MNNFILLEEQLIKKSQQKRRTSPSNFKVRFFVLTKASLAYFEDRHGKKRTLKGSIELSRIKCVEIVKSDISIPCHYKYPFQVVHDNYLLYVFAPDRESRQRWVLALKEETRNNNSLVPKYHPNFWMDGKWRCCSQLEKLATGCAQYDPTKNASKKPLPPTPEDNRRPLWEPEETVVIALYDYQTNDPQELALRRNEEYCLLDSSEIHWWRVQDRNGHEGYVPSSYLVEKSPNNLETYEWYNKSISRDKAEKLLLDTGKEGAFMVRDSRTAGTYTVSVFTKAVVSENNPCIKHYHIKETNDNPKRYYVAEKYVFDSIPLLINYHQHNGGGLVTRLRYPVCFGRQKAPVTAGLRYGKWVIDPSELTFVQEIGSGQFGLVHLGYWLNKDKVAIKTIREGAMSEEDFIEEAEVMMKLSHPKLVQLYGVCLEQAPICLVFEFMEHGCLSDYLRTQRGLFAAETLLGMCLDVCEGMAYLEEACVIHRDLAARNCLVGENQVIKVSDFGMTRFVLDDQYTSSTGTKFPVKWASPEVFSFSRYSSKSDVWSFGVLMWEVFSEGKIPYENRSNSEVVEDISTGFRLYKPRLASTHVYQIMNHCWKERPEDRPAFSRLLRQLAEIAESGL
Chain of TEC (P42680 whole entry): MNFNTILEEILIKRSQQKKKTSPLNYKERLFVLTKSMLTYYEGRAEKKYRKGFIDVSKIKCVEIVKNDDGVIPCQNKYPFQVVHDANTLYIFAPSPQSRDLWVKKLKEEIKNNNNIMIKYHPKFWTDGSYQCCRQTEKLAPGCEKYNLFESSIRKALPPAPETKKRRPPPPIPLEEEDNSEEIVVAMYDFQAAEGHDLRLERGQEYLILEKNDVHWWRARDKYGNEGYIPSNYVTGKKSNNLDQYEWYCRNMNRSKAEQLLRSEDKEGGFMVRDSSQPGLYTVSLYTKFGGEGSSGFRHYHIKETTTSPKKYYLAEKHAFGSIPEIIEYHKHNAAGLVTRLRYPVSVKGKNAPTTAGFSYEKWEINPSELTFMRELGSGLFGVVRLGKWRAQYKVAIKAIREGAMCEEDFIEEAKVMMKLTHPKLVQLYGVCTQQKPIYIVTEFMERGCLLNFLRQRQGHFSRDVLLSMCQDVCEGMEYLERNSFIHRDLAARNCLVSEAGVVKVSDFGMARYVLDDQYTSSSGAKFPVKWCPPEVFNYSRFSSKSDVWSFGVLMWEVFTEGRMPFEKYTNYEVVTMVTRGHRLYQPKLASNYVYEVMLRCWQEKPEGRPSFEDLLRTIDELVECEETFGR
Chain of BMX (P51813 whole entry): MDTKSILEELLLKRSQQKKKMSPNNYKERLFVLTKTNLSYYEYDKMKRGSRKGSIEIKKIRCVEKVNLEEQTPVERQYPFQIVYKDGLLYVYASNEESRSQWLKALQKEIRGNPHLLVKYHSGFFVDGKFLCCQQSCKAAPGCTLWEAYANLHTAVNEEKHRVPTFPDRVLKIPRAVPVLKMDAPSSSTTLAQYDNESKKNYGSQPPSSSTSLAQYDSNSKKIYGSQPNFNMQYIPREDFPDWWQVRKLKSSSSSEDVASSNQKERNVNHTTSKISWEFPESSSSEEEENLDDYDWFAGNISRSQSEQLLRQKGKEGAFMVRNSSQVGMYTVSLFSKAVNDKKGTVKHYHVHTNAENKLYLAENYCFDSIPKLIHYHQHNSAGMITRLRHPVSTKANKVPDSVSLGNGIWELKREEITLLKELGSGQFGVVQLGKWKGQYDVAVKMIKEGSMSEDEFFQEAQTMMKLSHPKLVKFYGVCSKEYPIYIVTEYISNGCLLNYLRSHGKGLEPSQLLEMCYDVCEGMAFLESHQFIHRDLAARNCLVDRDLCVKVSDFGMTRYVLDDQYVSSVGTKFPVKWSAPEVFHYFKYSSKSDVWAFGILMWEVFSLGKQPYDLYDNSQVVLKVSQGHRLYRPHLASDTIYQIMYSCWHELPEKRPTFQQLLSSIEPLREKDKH
Chain of JNK1 (P45983 whole entry): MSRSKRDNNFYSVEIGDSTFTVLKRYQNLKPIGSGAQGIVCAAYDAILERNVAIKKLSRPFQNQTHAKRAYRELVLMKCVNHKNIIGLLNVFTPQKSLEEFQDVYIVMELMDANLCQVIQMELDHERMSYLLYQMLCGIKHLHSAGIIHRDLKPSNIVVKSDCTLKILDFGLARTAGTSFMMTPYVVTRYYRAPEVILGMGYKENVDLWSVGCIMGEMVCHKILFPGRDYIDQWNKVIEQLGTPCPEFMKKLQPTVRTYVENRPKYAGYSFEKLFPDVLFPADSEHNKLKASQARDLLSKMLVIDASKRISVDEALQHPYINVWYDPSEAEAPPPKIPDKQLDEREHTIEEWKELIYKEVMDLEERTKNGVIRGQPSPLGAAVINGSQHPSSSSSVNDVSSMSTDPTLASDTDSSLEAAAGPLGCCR
Chain of BLK (P51451 whole entry): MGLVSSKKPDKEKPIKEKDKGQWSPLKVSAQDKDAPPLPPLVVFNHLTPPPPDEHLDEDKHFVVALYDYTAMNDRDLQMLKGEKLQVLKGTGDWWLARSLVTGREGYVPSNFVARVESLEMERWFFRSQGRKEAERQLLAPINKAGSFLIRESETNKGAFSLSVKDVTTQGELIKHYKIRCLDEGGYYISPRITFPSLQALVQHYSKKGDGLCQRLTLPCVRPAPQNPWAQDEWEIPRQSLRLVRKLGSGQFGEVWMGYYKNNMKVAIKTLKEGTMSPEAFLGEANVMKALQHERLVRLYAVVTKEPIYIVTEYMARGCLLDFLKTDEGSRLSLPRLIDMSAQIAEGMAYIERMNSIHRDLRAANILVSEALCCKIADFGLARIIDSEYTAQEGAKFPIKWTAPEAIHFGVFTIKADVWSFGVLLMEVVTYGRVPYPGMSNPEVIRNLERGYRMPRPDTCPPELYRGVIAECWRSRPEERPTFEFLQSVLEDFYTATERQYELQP
Chain of MEK5 (Q13163 whole entry): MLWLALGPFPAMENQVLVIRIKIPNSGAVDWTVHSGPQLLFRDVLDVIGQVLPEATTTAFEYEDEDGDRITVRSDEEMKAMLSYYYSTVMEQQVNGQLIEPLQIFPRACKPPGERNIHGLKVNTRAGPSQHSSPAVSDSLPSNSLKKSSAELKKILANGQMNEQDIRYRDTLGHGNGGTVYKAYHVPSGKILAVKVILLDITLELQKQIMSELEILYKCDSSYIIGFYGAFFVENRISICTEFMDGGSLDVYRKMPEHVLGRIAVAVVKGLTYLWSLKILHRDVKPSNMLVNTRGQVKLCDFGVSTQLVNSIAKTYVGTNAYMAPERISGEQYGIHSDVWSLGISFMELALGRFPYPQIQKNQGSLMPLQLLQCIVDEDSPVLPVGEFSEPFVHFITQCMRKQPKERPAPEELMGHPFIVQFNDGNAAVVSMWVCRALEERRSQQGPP
Experimental for BCWM.1 cells: (§2) Various cell lines were used including Waldenström's macroglobulinemia (WM) cell lines (BCWM.1, MWCL-1, RPCI-WM1) and B-cell lymphoma cell lines (OCI-Ly3, Ramos, OCI-Ly19). Cells were seeded into 384 well plates with the EL406 Combination Washer Dispenser (BioTek Instruments, Inc.) and inhibitor compounds were injected into the cells culture media with the JANUS Automated Workstation (PerkinElmer Inc.).
Excerpt for CLK1: (§3) Screening hits are identified by measuring the amount of protein captured in test versus control samples by using a quantitative, precise, and ultra-sensitive qPCR method that detects the associated DNA label.
Experimental for DU-145 cells: Data were normalized to control group (DMSO) and represented by the mean of at least two independent measurement with standard error <20%. GI50 were calculated using Prism 5.0 (GraphPad Software, San Diego, Calif.).
Excerpt for DYRK1B: as §3
Excerpt for EGFR(T790M): as §3
Excerpt for ITK: as §3
Excerpt for JNK1: as §3
Excerpt for MEK5: as §3
Experimental for MWCL-1 cells: as §2
Excerpt for PIK3CA(I800L): as §3

Regarding `C=CC(=O)Nc1cc(-n2c(=O)ccc3cnc4ccc(-c5ccc(NS(C)(=O)=O)cc5)cc4c32)ccc1C` [I-14], the GI50 (commonly the concentration that inhibits growth by half) in [1] is 7.77 µM; in assay [2], 4.92 µM; in assay [3] it was 5.83 µM; with DU-145 cells it was 4.38 µM; in assay [4], 3.64 µM. Also, at JAK3 (DiscoverX binding), the “Percent Control, JAK3” value was 20%. Moreover, the inhibition – broadly, the drop in the measured response relative to a control, in per cent – at 1 µM at JAK3 (read-out: % inhibition at 1 uM, JAK3(JH1domain-catalytic)) was found to be 6.6%; on MEK5 it was 100%; on PIK3CA(I800L) it was 46%; at EGFR(T790M) (read-out: % inhibition at 1 uM, EGFR(T790M)) it was 11%; on CLK1 it was 95%; on JNK1 it was 93%. Further, the inhibition at 1 µM at DYRK1B came to 100%. Moreover, the EC50 (usually the concentration that produces a half-maximal response) came to 1.39 µM in the assay with MWCL-1 cells and 1.1 µM with BCWM.1 cells. Moreover, the “BMX protein levels in RV-1 cells” value at BMX was “significantly reduced”. Moreover, the IC50 (commonly the concentration that inhibits the measured activity by half) at BLK was found to be 0.377 µM; against mTOR, 0.325 µM; against TEC, 0.653 µM. Besides, at EGFR(T790M) (DiscoverX binding), the “Percent Control, EGFR(T790M)” value turned out to be 2.1%. For the same compound, the “Percent Control, ITK” value at ITK is reported as 52%.
